Experimental data from paper PMC11206691, “N-Hydroxypiridinedione: A Privileged Heterocycle for Targeting the HBV RNase H” (Molecules, 2024).
Where two headings read alike, the source gives them in different places.

Tests used:
[1] = Solubility limit assay (turbidity, DMEM-F12 + 10% FBS); assay type: physicochemical; conditions: pH 7.4, DMEM-F12 with 10% FBS, 1% DMSO, upper limit 200 µM
Method: Compound solubility limits were tested in DMEM-F12 without phenol red (Gibco, Grand Island, NY, USA) supplemented with 10% FBS (pH 7.2–7.4) to mimic cell culture experiments, as we have performed previously. Compounds were serially diluted in buffer at pH 7.4 in 384-well, optically clear plates (upper limit 200 µM, DMSO 1%) and read on a plate reader at 620 nm. Compound concentration (µM) was plotted against optical density (OD) and a solubility limit was determined by identifying an inflection point where there was a significant increase in optical density due to increasing turbidity; the concentration of the compound at the inflection point was defined as the solubility limit. Two or more replicate assays were performed on different days for each compound.

[2] = Parallel artificial membrane permeability assay; assay type: in vitro ADME; parameters: key to Papp Interpretation: High rate of apparent passive permeability (>1 × 10^−6 cm/s); Low rate of apparent passive permeability (<1 × 10^−6 cm/s); INS: Compound was insoluble in 100% DMSO; conditions: for Papp Interpretation: pH 7.4; for Papp: pH 7.4, 200 μM; for Papp / Papp at 2 h, 200 µM: 2 h, room temperature; for Papp interpretation (high/low permeability category) at 2 h, 200 µM / Papp at 2 h, 200 µM: PAMPA; for Papp interpretation (high/low permeability category) at 2 h, 200 µM: pH 7.4, pH 7.4; for Papp at 2 h, 200 µM: pH 7.4, pH 7.4, 200 μM
Method: Apparent passive permeability (Papp) was assessed at pH 7.4 using a 96-well donor/acceptor cassette (Sigma Aldrich, Burlington, MA, USA), which mimics the apical and basolateral sides of the small intestine epithelium, as we have described previously. Briefly, an artificial membrane composed of 1% w/v lethicin/dodecane was added to the poly (vinylidene fluoride) (PVDF) membrane filter. Once dry, compounds (200 μM) were diluted in buffer at pH 7.4 and added to the donor side of the membrane, and the same pH buffer was added to the acceptor side. The cassette was assembled and incubated at room temperature with shaking at 250 rpm for 2 h, after which 100 μL of the acceptor well was retrieved and the experimental compound absorbance was read on a plate reader between 200 and 600 nm. Compound Papps (cm/s) values were determined by normalizing to the compound absorbance at equilibrium, incubation time, and membrane porosity Two or more replicate assays were conducted on different days.

HBV replication = experiment: qPCR HBV replication inhibition assay in HepDES19 cells; assay type: cell-based, Hepatitis B virus (HBV) genotype D; conditions: 72 h, (+) DNA qPCR
Method: (§1) HepDES19 cells were incubated on collagen-coated plates at 37 °C with 5% CO2 and saturating humidity in Dulbecco’s modified Eagle’s medium (DMEM/F12) (Cytiva Life Sciences, Marlborough, MA, USA) supplemented with 10% fetal bovine serum (FBS), penicillin (100 IU/mL), and streptomycin (100 µg/mL). HepDES19 cells are HepG2 cells that carry a stably transfected HBV genotype D genome under the control of a tetracycline repressible promoter. Cells were maintained in the presence of 1 µg/mL tetracycline to repress the expression of the stably integrated HBV genome, and HBV replication was induced by the withdrawal of tetracycline from the culture medium.
HBV replication inhibition was measured in HepDES19 cells induced to replicate HBV by the removal of tetracycline using a strand-preferential quantitative PCR assay as previously described. Cells were seeded at 4 × 10^4 cells/well in 96-well plates for 48 h. Serially diluted compound was then added to cells at a final concentration of 1% DMSO for 72 h, after which the cells were lysed and qPCR was performed as described in Li et al.. EC50 values were calculated from the (+) DNA data with GraphPad Prism using the four-parameter log (inhibitor) versus response algorithm with the bottom value set to zero. Three or more replicate assays were performed on different days.

MTS cytotoxicity assay = assay type: cell-based; conditions: human, HepDES19 cells
Method: as §1
Cell viability was assessed using the CellTiter 96^TM Aqueous Non-Radioactive Cell Proliferation assay (MTS) (Promega, Madison, WI, USA) as described previously. HepDES19 cells were seeded at 1 × 10^4 cells per well in 96-well, and compound was added after 48 h. Cells incubated with serially diluted compound (1% DMSO) for 72 h. Bac absorbance values were subtracted, and data were converted to percent cell viability. The cytotoxic concentration 50% (CC50) values were calculated with GraphPad Prism by using the four-parameter variable response log (inhibitor) versus response algorithm with the bottom value set to zero. Three or more replicate assays were performed on different days.

[3] = DMEM-F12 without phenol red with 10% FBS, plasma or biological fluid, kinetic from dmso stock
[4] = Hepatitis B virus, read-out: EC50

Row | Molecule | solubility [1] | Papp Interpretation [2] | Papp [2] | solubility [1, 3] | melting point | EC50 (HBV replication; [4]) | CC50 at 72 h (MTS cytotoxicity assay) | Papp interpretation (high/low permeability category) at 2 h, 200 µM [2] | Papp at 2 h, 200 µM [2] | Solubility Limit [1] | EC50 (HBV replication)
1 | 2,6-Diamino-4-(3-methoxyphenoxy)-1,6-dihydropyrimidine 1-oxide [Compound 55] | > 200 µM | H (High rate of apparent passive permeability (>1 × 10^−6 cm/s)) | 6.17 ×10⁻⁶ cm/s |  |  |  |  |  |  |  | 
2 | CSc1ccc(CON=C(C)c2c(C)cc(=O)n(O)c2O)cc1 [Compound 33, 1,6-Dihydroxy-4-methyl-5-(1-(((4(methylthio)benzyl)oxy)imino)ethyl)pyridin-2(1H)-one] |  |  |  | > 200 µM | 110 to 115 °C (dec.) | 1.4 ± 0.7 µM | 100 µM | > 1 ×10⁻⁶ cm/s | 4.35 ×10⁻⁶ cm/s |  | 
3 | COC(=O)c1ccc(C(C)ON=C(C)c2c(C)cc(=O)n(O)c2O)cc1 (centres unmarked) [Compound 34, Methyl-4-(1-(((1-(1,2-dihydroxy-4-methyl-6-oxo-1,6-dihydropyridin-3-yl)ethylidene)amino)oxy)ethyl)benzoate] |  |  |  | 50 µM | 130 °C (dec.) | 6.3 ± 5.5 µM | 96 ± 5.7 µM | > 1 ×10⁻⁶ cm/s | 2.5 ×10⁻⁶ cm/s |  | 
4 | COc1cccc(CON=C(C)c2c(C)cc(=O)n(O)c2O)c1 [Compound 35, 1,6-Dihydroxy-5-(1-(((3-methoxybenzyl)oxy)imino)ethyl)-4-methylpyridin-2(1H)-one] |  |  |  | 117 µM | 120 to 122 °C (dec.) | 1.9 ± 1.2 µM | 90 ± 14.1 µM | > 1 ×10⁻⁶ cm/s | 6.19 ×10⁻⁶ cm/s |  | 
5 | COC(=O)c1cc(Cl)c(CON=C(C)c2c(C)cc(=O)n(O)c2O)c(Cl)c1 [Compound 36, Methyl 3,5-dichloro-4-((((1-(1,2-dihydroxy-4-methyl-6-oxo-1,6-dihydropyridin-3-yl)ethylidene)amino)oxy)methyl)benzoate] |  |  |  | 163 µM | 117 to 119 °C (dec.) | 3.1 ± 0.4 µM | 100 µM | > 1 ×10⁻⁶ cm/s | 4.35 ×10⁻⁶ cm/s |  | 
6 | CC(=NOC(CNC(=O)c1ccco1)c1cc(F)cc(F)c1)c1c(C)cc(=O)n(O)c1O (centres unmarked) [Compound 37, N-(2-(3,5-Difluorophenyl)-2-(((1-(1,2-dihydroxy-4-methyl-6-oxo-1,6-dihydropyridin-3-yl)ethylidene)amino)oxy)ethyl)furan-2-carboxamide] |  |  |  | 175 µM | 118 to 120 °C (dec.) | 4.7 ± 3 µM | 100 µM | > 1 ×10⁻⁶ cm/s | 4.96 ×10⁻⁶ cm/s |  | 
7 | CC(=NOC(c1cc(F)cc(F)c1)c1ccccn1)c1c(C)cc(=O)n(O)c1O (centres unmarked) [Compound 38, 5-(1-(((3,5-Difluorophenyl)(pyridin-2-yl)methoxy)imino)ethyl)-1,6-dihydroxy-4-methylpyridin-2(1H)-one] |  |  |  | 167 µM | 102 to 104 °C (dec.) | 2.3 ± 0.2 µM | 47.1 ± 21.7 µM | > 1 ×10⁻⁶ cm/s | 2.61 ×10⁻⁶ cm/s |  | 
8 | CC(=NOCc1ccc(O)cc1)c1c(C)cc(=O)n(O)c1O [Compound 39, 1,6-Dihydroxy-5-(1-(((4-hydroxybenzyl)oxy)imino)ethyl)-4-methylpyridin-2(1H)-one] |  |  |  | > 200 µM | 98 to 100 °C (dec.) | 5.2 ± 0.9 µM | 91.1 ± 14.3 µM | > 1 ×10⁻⁶ cm/s | 5.21 ×10⁻⁶ cm/s |  | 
9 | C#CCCCON=C(C)c1c(C)cc(=O)n(O)c1O [Compound 40, 1,6-Dihydroxy-4-methyl-5-(1-((pent-4-yn-1-yloxy)imino)ethyl)pyridin-2(1H)-one] |  |  |  | > 200 µM | 93 to 95 °C (dec.) | 2.5 ± 0.6 µM | 53.6 ± 31.4 µM | > 1 ×10⁻⁶ cm/s | 3.36 ×10⁻⁶ cm/s |  | 
10 | C#CCCON=C(C)c1c(C)cc(=O)n(O)c1O [Compound 41, 5-(1-((But-3-yn-1-yloxy)imino)ethyl)-1,6-dihydroxy-4-methylpyridin-2(1H)-one] |  |  |  | > 200 µM | 86 to 89 °C (dec.) | 1.2 ± 0.2 µM | 57.5 ± 32.4 µM | > 1 ×10⁻⁶ cm/s | 2.24 ×10⁻⁶ cm/s |  | 
11 | C#CCON=C(C)c1c(C)cc(=O)n(O)c1O [Compound 42, 1,6-Dihydroxy-4-methyl-5-(1-((prop-2-yn-1-yloxy)imino)ethyl)pyridin-2(1H)-one] |  |  |  | 167 µM | 78 to 80 °C (dec.) | 5.4 ± 2.2 µM | 81.7 ± 18.6 µM | > 1 ×10⁻⁶ cm/s | 3.74 ×10⁻⁶ cm/s |  | 
12 | Nc1cc(Oc2cc(Cl)c(Cl)cc2Cl)nc(N)[n+]1[O-] [Compound 56, 2,6-Diamino-4-(2′,4′,5′-trichloro)-1,6-dihydropyrimidine 1-oxide] |  |  |  | 167 µM | 135 °C | > 100 µM |  | > 1 ×10⁻⁶ cm/s | 3.85 ×10⁻⁶ cm/s |  | 
13 | Nc1cc(Oc2ccc(Cl)cc2Cl)nc(N)[n+]1[O-] [Compound 57, 2,6-Diamino-4-(2′,4′-dichloro)-1,6-dihydropyrimidine 1-oxide] |  |  |  | 100 µM | 160 °C | > 100 µM |  | > 1 ×10⁻⁶ cm/s | 2.99 ×10⁻⁶ cm/s |  | 
14 | COc1ccc(COc2cc(N)[n+]([O-])c(N)n2)cc1 [Compound 58, 2,6-Diamino-4-((4-methoxybenzyl)oxy)pyrimidine 1-oxide] |  |  |  | > 200 µM | > 250 °C | > 100 µM |  | > 1 ×10⁻⁶ cm/s | 2.56 ×10⁻⁶ cm/s |  | 
15 | COC(=O)c1ccc(CO/N=C(\C)C2C(=O)NC(=O)NC2=O)cc1 [Compound 59, Methyl 4′-((((1-(2,4,6-Trioxohexahydropyrimidin-5-yl)ethylidene)amino)oxy)methyl)benzoate] |  | INS | INS |  | > 250 °C |  |  |  |  | INS | lacked any inhibitory activity
